# Experimental data reported in US5574059A, “Treating disorders mediated by vascular smooth muscle cell proliferation” (priority 1995, dated 1996).
# What was measured:
# [1] = Example IV: patient with fibromuscular dysplasia of the renal artery, angioplasty; assay type: in vivo, human
# [2] = system: rat carotid artery; assay: balloon angioplasty of rat left common carotid artery; assay type: in vivo; conditions: 10 mg/kg/24hr for 7 days, s.c. minipump
# Method: To determine the actions of idazoxan in inhibiting the proliferation of vascular smooth muscle cells in vivo, we tested the effect of balloon angioplasty in rat carotid artery. Left common carotid artery balloon angioplasty was performed as described by Ohlstein et al, Proc. Natl. Acad. Sci. 90, 6189-6193 (1993). Rats were implanted, subcutaneously, with Alzet minipumps (1 μl/hr delivery rate) containing idazoxan to deliver a dose of 10 mg/kg/24hr for 7 days. Control rats were implanted with minipumps containing sterile saline. Ballon angioplasty of left common carotid artery was performed on fourth day of idazoxan administration and animals were sacrificed 10 days after the surgery. Left and right common carotid arteries were removed, cross-sections (10 μm) were cut in a cryostat and stained with eosin and hematoxylin. Blood vessel layers were quantitated in an imaging system and the ratio of internal and external diameters were calculated.
# [3] = system: human coronary artery smooth muscle cells; assay: 3H-thymidine incorporation in normal human coronary artery smooth muscle cells; assay type: cell-based
# Method: In this experiment the antiproliferative action of idazoxan was tested in normal human coronary artery smooth muscle cells (Clonetics Corp.). Proliferation of smooth muscle cells was measured as described above by the incorporation of ^3 H-thymidine into cellular DNA. Following the incubation of semi-confluent smooth muscle cells in serum-free medium for 24 hr, growth is stimulated by either 5% fetal calf serum (FCS) or platelet derived growth factor (PDGF) (10 ng/well) in the presence and absence of various concentrations of idazoxan. […] In Table 4, "DPM" stands for disintegrations per minute which is a measure of the radioactivity incorporated into the cellular DNA by 3H-thymidine.
# [4] = system: rat aortic smooth muscle cells; assay: serum-stimulated proliferation, 3H-thymidine incorporation into DNA; assay type: cell-based; conditions: 10% fetal calf serum stimulated
# Method: Inhibition of serum-stimulated proliferation of rat aortic smooth muscle cells is determined as follows: The antiproliferative effect of potential drug is determined by measuring the incorporation of ^3 H-thymidine into cellular DNA. Exposure of quiescent vascular smooth muscle cell to serum, which contains many growth factors, results in a large increase in cellular proliferation as measured by ^3 H-thymidine incorported into DNA. The inhibitory effect of potential drug on serum-stimulated proliferation is tested by adding a drug before the addition of serum and determining if the serum-stimulated proliferation is reduced. […] In that event, antagonizing of the antiproliferative effect of idazoxan is determined by adding antagonist before the addition of idazoxan to serum-stimulated vascular smooth muscle cells.
# In this experiment, the proliferation of vascular smooth muscle cells was determined by measuring DNA replication. The incorporation of ^3 H-thymidine into DNA was used to measure the replication of DNA as described in Erlinge, D., et al, Am. J. Physiol. 265, H1089-H1097 (1993) which is incorporated herein by reference.
# Rat aortic smooth muscle cells prepared as described in In Vitro Example 1 were plated into 24-well plates at a density of about 30,000 cells/well in 10% fetal calf serum (FCS). After 48 hours, the cells were starved in 0.5% FCS for another 48 hours to decrease proliferation and induce quiescence. The medium was replaced by serum-free medium 24 hours prior to addition of drug (drugs are described below) and 10% fetal calf serum or only 10% fetal calf serum in the case of the control. The cells were then incubated for 24 hours and ^3 H-thymidine (1 μCi/well) was added at hour 20. At the end of the 24 hour period, the medium was aspirated and the cells were washed three times with phosphate-buffered saline and twice with ice-cold trichloroacetic acid. Fixed cells were then solubilized in 0.2M NaOH and sonicated. A 100 μl aliquot was used for scintillation counting.
smiles,measurement,setting,value
"c1ccc2c(c1)OCC(C1=NCCN1)O2 (centres unmarked) [Idazoxan, 2-[2-(1,4-benzodioxanyl)]-2-imidazoline]",blood pressure,[1]; idazoxan 75 mg/day for 1 month followed by angioplasty with continued treatment,rapid fall of blood pressure to normal
same,re-elevation of pressure / restenosis of the renal artery,"[1]; idazoxan 75 mg/day, UK 14,304 60, naphazoline 125, cirazoline 60, agmatine 900 mg/day","without evidence months later on re-elevation of pressure or on follow up, of restenosis of the renal artery"
same,"internal/external diameter ratio, non-injured right common carotid artery vs control",[2],no significant difference
same,internal/external diameter ratio of lesion side as percent of control side,"[2]; 10 days after surgery, saline control 21.9 ±3.3",6.5 ±3.4%
same,"lesion side as percent of control side vs saline, in words",[2]; injured left common carotid artery,significant decrease
same,3H-thymidine incorporated,[3]; FCS (5%) + idazoxan 1 μM,5540 ± 430 DPM/well
same,3H-thymidine incorporated,[3]; FCS (5%) + idazoxan 10 μM,2370 ± 230 DPM/well
same,3H-thymidine incorporated,[3]; FCS (5%) + idazoxan 100 μM,430 ± 98 DPM/well
same,3H-thymidine incorporated,[3]; PDGF (10 ng/well) + idazoxan 1 μM,3220 ± 180 DPM/well
same,3H-thymidine incorporated,[3]; PDGF (10 ng/well) + idazoxan 10 μM,1890 ± 210 DPM/well
same,3H-thymidine incorporated,[3]; PDGF (10 ng/well) + idazoxan 100 μM,340 ± 60 DPM/well
same,"incorporation of 3H-thymidine, in words",[3]; stimulated by FCS or PDGF,inhibited the incorporation of ^3 H-thymidine
same,"inhibition of vascular smooth muscle cell proliferation, in words",[4],potently inhibited
same,IC50,"[4]; Rattus norvegicus, 24 h, read-out: 3H-thymidine incorporated (IC50)",4.5 ± 1.4 µM
